Laboratory results taken from patent US6903219B2 (dated 2005).

Row | melting point [°C] | Compound
1 | 168 to 169 | COc1ccnc(C(=O)N[C@H]2COC(=O)[C@H](Cc3ccccc3)[C@@H](OCC(C)C)[C@H](C)OC2=O)c1O
2 | 50 to 52 | C=C(C)CO[C@H]1[C@H](C)OC(=O)[C@@H](NC(=O)c2nccc(OC)c2OCc2ccccc2)COC(=O)[C@@H]1Cc1ccccc1
3 | 150 to 152 | CCCO[C@H]1[C@H](C)OC(=O)[C@@H](NC(=O)c2nccc(OC)c2O)COC(=O)[C@@H]1Cc1ccccc1
4 | 102 to 104 | C=C(C)CO[C@H]1[C@H](C)OC(=O)[C@@H](NC(=O)c2nccc(OC)c2OCOC(C)=O)COC(=O)[C@@H]1Cc1ccccc1
